10 compounds from PubChem BioAssay (NCI) can be followed below.

Structures are written as SMILES.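 All cell lines were grown in 96-well plates and treated with compound for 48 hours. Here, GI50 denotes the concentration required for 50% inhibition of growth. TGI: concentration producing complete growth inhibition.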

Among the test systems are ACHN renal; BT-549 breast; COLO 205 colon; HL-60(TB) leukemia; HT29 colon; MALME-3M melanoma; RPMI-8226 leukemia; SK-MEL-5 melanoma; SN12C renal; SNB-75 CNS.
Common to all, as to assay: NCI anticancer screen, dose series, 48 h

For the compound `Cc1nc2c(cnn2-c2ccnc3c(C(F)(F)F)cccc23)c(=O)o1`, the GI50 in the assay on ACHN renal, in the assay with BT-549 breast, in the assay on COLO 205 colon, in the assay with HL-60(TB) leukemia, in the assay on HT29 colon and in the assay on MALME-3M melanoma was > 100 µM each time. The GI50 in the assay with RPMI-8226 leukemia, in the assay with SK-MEL-5 melanoma, with SN12C renal and with SNB-75 CNS was > 100 µM throughout. The TGI in the assay with ACHN renal, with BT-549 breast, in the assay with COLO 205 colon, in the assay with HL-60(TB) leukemia, in the assay with HT29 colon and in the assay with MALME-3M melanoma was > 100 µM throughout. The TGI in the assay with RPMI-8226 leukemia, with SK-MEL-5 melanoma, with SN12C renal and in the assay with SNB-75 CNS was > 100 µM each time.
With `COc1ccc(C(=O)CC2(O)C(=O)Nc3c(Cl)ccc(Cl)c32)cc1` (centres undefined), the GI50 in the assay on ACHN renal is 12.6 µM; in the assay with BT-549 breast it was 2.43 µM; in the assay with COLO 205 colon, 0.954 µM; in the assay with HL-60(TB) leukemia, 0.384 µM; in the assay on HT29 colon, 0.491 µM; in the assay with MALME-3M melanoma, 8.96 µM. Also, the GI50 with RPMI-8226 leukemia was 2.64 µM; with SK-MEL-5 melanoma, 1.01 µM; in the assay with SN12C renal, 4.6 µM; in the assay on SNB-75 CNS it was 1.89 µM. Also, the TGI in the assay on ACHN renal was > 100 µM; in the assay with BT-549 breast, > 70.9 µM; in the assay with COLO 205 colon it was 5.3 µM; with HL-60(TB) leukemia it was 3.51 µM; in the assay on HT29 colon, > 57.9 µM; in the assay on MALME-3M melanoma, > 100 µM. The TGI with RPMI-8226 leukemia is 15.5 µM; with SK-MEL-5 melanoma, 18.8 µM; with SN12C renal, > 95.1 µM; in the assay with SNB-75 CNS it was > 29.8 µM.
Take `COc1c(O)c2ccccc2c2cc(O)ccc12`: the TGI with ACHN renal was 14.5 µM; in the assay with BT-549 breast, 7.04 µM; with COLO 205 colon, 31.5 µM; in the assay with HL-60(TB) leukemia, 27 µM; in the assay on HT29 colon, 47.4 µM; in the assay with MALME-3M melanoma it was 3.18 µM. Also, the TGI came out at 35.7 µM in the assay with RPMI-8226 leukemia, 5.59 µM with SK-MEL-5 melanoma, 14.1 µM in the assay on SN12C renal and 22.7 µM in the assay on SNB-75 CNS.
As for `CC[C@]1(O)C[C@@H]2CN(Cc3c([nH]c4ccccc34)[C@@](C(=O)OC)(c3cc4c(cc3OC)N(C)[C@H]3[C@@](O)(C(=O)OC)[C@H](OC(C)=O)[C@]5(CC)[C@@H]6C[C@@H]6CN6CC[C@]43[C@@H]65)C2)C1`, the GI50 in the assay on ACHN renal was 3.38 µM; in the assay on BT-549 breast, 0.365 µM; with COLO 205 colon, 0.0298 µM; with HL-60(TB) leukemia, 0.0159 µM; with HT29 colon, 0.0311 µM; with MALME-3M melanoma, 2.6 µM. The GI50 in the assay on RPMI-8226 leukemia is 0.0372 µM; in the assay on SK-MEL-5 melanoma, 0.119 µM; in the assay on SN12C renal, 0.232 µM; with SNB-75 CNS, 0.0393 µM. Also, the TGI in the assay on ACHN renal is > 4.38 µM; in the assay with BT-549 breast, > 4.38 µM; in the assay with COLO 205 colon, 0.252 µM; in the assay on HL-60(TB) leukemia, > 4.38 µM; in the assay with HT29 colon it was > 4.38 µM; with MALME-3M melanoma it was > 4.38 µM. Also, the TGI is > 4.38 µM in the assay on RPMI-8226 leukemia, 1.85 µM in the assay with SK-MEL-5 melanoma, > 4.38 µM in the assay on SN12C renal and > 4.38 µM in the assay on SNB-75 CNS.
Take `COc1ccc(CCNc2nc3ccccc3c3[nH]c4ccccc4c23)cc1OC`: the GI50 in the assay on ACHN renal was 3.91 µM; in the assay on BT-549 breast it was 12.1 µM; in the assay with COLO 205 colon, 1.57 µM; with HL-60(TB) leukemia, 1.65 µM; in the assay on HT29 colon, 2.04 µM; in the assay with MALME-3M melanoma, 1.5 µM. Moreover, the GI50 with RPMI-8226 leukemia was 2.18 µM; in the assay on SK-MEL-5 melanoma, 1.8 µM; with SN12C renal, 3.58 µM; in the assay on SNB-75 CNS, 14.3 µM. The TGI in the assay with ACHN renal amounted to 17.1 µM; with BT-549 breast it was 26.3 µM; in the assay on COLO 205 colon, 3.46 µM; in the assay on HL-60(TB) leukemia, 3.88 µM; in the assay on HT29 colon, 6.32 µM; with MALME-3M melanoma, 3.15 µM. Further, the TGI in the assay with RPMI-8226 leukemia amounted to 5.24 µM; in the assay with SK-MEL-5 melanoma, 3.21 µM; in the assay with SN12C renal, 16.5 µM; in the assay with SNB-75 CNS, 28.4 µM.
Consider `[O-][n+]1onc2c3nn(-c4ccccc4)nc3ccc21`, for which the TGI was > 100 µM with ACHN renal; > 100 µM with BT-549 breast; > 100 µM with COLO 205 colon; 8.68 µM in the assay on HL-60(TB) leukemia; > 100 µM with HT29 colon; > 100 µM with MALME-3M melanoma. Further, the TGI in the assay on RPMI-8226 leukemia was 53.3 µM; with SK-MEL-5 melanoma it was > 100 µM; in the assay on SN12C renal it was > 100 µM; in the assay on SNB-75 CNS, > 100 µM.
Consider `COc1ccc(/C=C2/SC(=Nc3c(C)nn(-c4ccccc4)c3N)NC2=O)cc1`, for which the GI50 in the assay on ACHN renal is 5.29 µM; in the assay with BT-549 breast it was 4.94 µM; with COLO 205 colon, 3.84 µM; with HL-60(TB) leukemia it was 2.9 µM; with HT29 colon, 3.8 µM; in the assay with MALME-3M melanoma, 3.77 µM. Besides, the GI50 with RPMI-8226 leukemia is 3.9 µM; with SK-MEL-5 melanoma, 3.23 µM; in the assay on SN12C renal it was 8.39 µM; with SNB-75 CNS, 3.43 µM. Further, the TGI in the assay with ACHN renal is 52.4 µM; with BT-549 breast it was 22.4 µM; in the assay on COLO 205 colon it was 19.2 µM; in the assay on HL-60(TB) leukemia, 10.7 µM; with HT29 colon, 16.6 µM; in the assay on MALME-3M melanoma, 22.1 µM. Moreover, the TGI with RPMI-8226 leukemia came to 22.9 µM; in the assay on SK-MEL-5 melanoma, 10.5 µM; with SN12C renal, 55.2 µM; in the assay with SNB-75 CNS it was 26.7 µM.
As to `Cn1cc(-c2ccc3cc(-c4ccc(CC(=O)Nc5cc(C(C)(C)C)nn5C)cc4)cnc3c2)cn1`, the GI50 in the assay with ACHN renal was 0.11 µM; in the assay with BT-549 breast it was 0.262 µM; in the assay with COLO 205 colon it was 0.441 µM; in the assay on HL-60(TB) leukemia, 0.314 µM; in the assay with HT29 colon, 0.377 µM; in the assay with MALME-3M melanoma, 0.146 µM. Besides, the GI50 was 0.254 µM with RPMI-8226 leukemia, 0.227 µM in the assay with SK-MEL-5 melanoma, 0.23 µM in the assay with SN12C renal and 0.0723 µM in the assay on SNB-75 CNS. Moreover, the TGI is > 100 µM in the assay with ACHN renal; 2.38 µM in the assay with BT-549 breast; > 100 µM in the assay on COLO 205 colon; > 100 µM with HT29 colon; > 100 µM in the assay with MALME-3M melanoma; 1.78 µM in the assay with RPMI-8226 leukemia. The figures for the TGI in the assay on SK-MEL-5 melanoma, in the assay on SN12C renal and with SNB-75 CNS were 0.585 µM, > 100 µM and > 100 µM, respectively.
Consider `COc1cc([C@@H]2c3cc4c(cc3[C@H](OC3OC5COC(c6ccccc6)OC5C(O)C3O)[C@H]3COC(=O)[C@H]23)OCO4)cc(OC)c1OC` (some centres undefined), for which the GI50 in the assay on ACHN renal is 0.596 µM; in the assay on BT-549 breast, 0.333 µM; in the assay with COLO 205 colon, 0.28 µM; in the assay with HL-60(TB) leukemia it was 0.342 µM; with HT29 colon it was 0.356 µM; in the assay on MALME-3M melanoma, 1.17 µM. Further, the GI50 in the assay with RPMI-8226 leukemia was 0.263 µM; in the assay on SK-MEL-5 melanoma it was 0.242 µM; in the assay on SN12C renal it was 0.368 µM; in the assay on SNB-75 CNS, 0.403 µM. The TGI was 12.7 µM with ACHN renal; 1.99 µM in the assay on BT-549 breast; 0.935 µM in the assay on COLO 205 colon; 1.46 µM with HL-60(TB) leukemia; 2.32 µM in the assay with HT29 colon; 4.89 µM in the assay on MALME-3M melanoma. The TGI with RPMI-8226 leukemia was determined as 1 µM; with SK-MEL-5 melanoma, 0.715 µM; in the assay on SN12C renal it was 20.6 µM; in the assay on SNB-75 CNS it was 8.11 µM.
Consider `CCOC(=O)c1cnc2ccc(Cl)cc2c1NCCCN(C)C`, for which the GI50 was 9.85 µM in the assay on ACHN renal; 27.8 µM in the assay on BT-549 breast; 10.5 µM in the assay on COLO 205 colon; 19.4 µM with HL-60(TB) leukemia; 14.1 µM in the assay on HT29 colon; 19.1 µM with MALME-3M melanoma. Also, the GI50 is 20.7 µM in the assay with RPMI-8226 leukemia, 16 µM in the assay with SK-MEL-5 melanoma, 20.5 µM in the assay on SN12C renal and 0.684 µM in the assay on SNB-75 CNS. Moreover, the TGI in the assay with ACHN renal was > 100 µM; with BT-549 breast it was > 100 µM; in the assay on COLO 205 colon, 24.6 µM; in the assay with HL-60(TB) leukemia, 50.8 µM; in the assay with HT29 colon, 52.6 µM; in the assay with MALME-3M melanoma, 38.7 µM. In addition, the TGI in the assay with RPMI-8226 leukemia is 54.9 µM; in the assay on SK-MEL-5 melanoma, 30.4 µM; in the assay on SN12C renal, > 100 µM; in the assay with SNB-75 CNS, 77.2 µM.
